This note sets out measurements from patent US9562031B1, “Phenethyldihydrobenzodioxolones and methods of use” (Sequoia Sciences, Inc., priority 2015, dated 2017).

Where two headings read alike, the source gives them in different places. Bounds are passed on as bounds.

Test [1] relates to NCI-H460 (large cell lung carcinoma) cells. The test is described as follows: antiproliferation assay (72 h, CELLTITER 96), NCI-H460. To be noted: read-out: NCI-H460 IC50. The format is cell-based, human. Put shortly: (§1)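 Human M14 melanoma and NCI-H460 lung carcinoma cells in RPMI-1640/10% FBS, seeded at 5×10^2–5×10^4 cells/well and adhered overnight, then exposed to seven compound concentrations for 72 h at 37 °C. Viable cells read by CellTiter 96 AQueous (MTS); IC50 = concentration giving 50% of maximal growth inhibition.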

The subject of test [2] is M14 (amelanotic melanoma) cells. The test is described as follows: antiproliferation assay (72 h, CELLTITER 96), M14. The format is cell-based, human. Put shortly:
as §1

The mark [3] stands for this setting: Homo sapiens, NCI-H460, Table 3.
[4] abbreviates: Homo sapiens, NCI-H460, Table 5.
The mark [5] stands for this setting: Homo sapiens, NCI-H460, Table 7.
The mark [6] stands for this setting: Homo sapiens, NCI-H460, Table 4.

As to “(6S,7aR)-6-allyl-7a-((S)-1-(2-fluoro-4-methoxy-5-morpholinophenyl)propan-2-yl)-7,7a-dihydrobenzo[d][1,3]dioxol-5(6H)-one [Compound 98]”, the IC50 in test [1] (Table 4) and in test [2] (Table 4) was > 20000 nM each time.

As to `C=CC[C@H]1C[C@]2([C@@H](C)Cc3cc(F)c(OC)cc3F)OCOC2=CC1=O` [Compound 7, (6S,7aR)-6-allyl-7a-((S)-1-(2,5-difluoro-4-methoxyphenyl)propan-2-yl)-7,7a-dihydrobenzo[d][1,3]dioxol-5(6H)-one], the IC50 in test [1] (setting [3]) is 59 nM; in test [2] (Homo sapiens, Table 3), 23 nM.

For the compound `C=CC[C@H]1C[C@]2([C@@H](C)Cc3ccc(OC(C)=O)cc3)OCOC2=CC1=O` [Compound 100, 4-((S)-2-((3aR,5S)-5-allyl-6-oxo-3a,4,5,6-tetrahydrobenzo[d]dioxol-3a-yl)propyl)phenyl acetate], the IC50 in test [1] (setting [4]) is > 20000 nM; in test [2] (Homo sapiens, Table 5), > 20000 nM.

Turning to `C=C[C@H](C)[C@H]1C[C@]2([C@@H](C)Cc3ccc(OC)cc3F)OCOC2=CC1=O` [Compound 110, (6R,7aR)-6-((S)-but-3-en-2-yl)-7a-((S)-1-(2-fluoro-4-methoxyphenyl)propan-2-yl)-7,7a-dihydrobenzo[d][1,3]dioxol-5(6H)-one], the IC50 amounted to 130 nM in test [1] (setting [5]) and 290 nM in test [2] (Homo sapiens, Table 7).

Turning to `C=CC[C@H]1C[C@]2([C@H](C)Cc3cc(C(=O)N(C)C)c(OC)cc3F)OCOC2=CC1=O` [Compound 93, 5-((R)-2-((3aR,5S)-5-allyl-6-oxo-3a,4,5,6-tetrahydrobenzo[d][1,3]dioxol-3a-yl)propyl)-4-fluoro-2-methoxy-N,N-dimethylbenzamide], the concentration for half-maximal inhibition (IC50) in test [1] (setting [3]) is > 20000 nM; in test [2] (Homo sapiens, Table 3), > 20000 nM.

For `COCC[C@H]1C[C@]2([C@@H](C)Cc3cc(O)c(OC)cc3F)OCOC2=CC1=O` [Compound 78, (6S,7aR)-7a-((S)-1-(2-fluoro-5-hydroxy-4-methoxyphenyl)propan-2-yl)-6-(2-methoxyethyl)-7,7a-dihydrobenzo[d][1,3]dioxol-5(6H)-one], the IC50 turned out to be 270 nM in test [1] (setting [5]) and 190 nM in test [2] (Homo sapiens, Table 7).

In the case of `COc1cc(F)c(C[C@H](C)[C@]23C[C@H](CC(C)O)C(=O)C=C2OCO3)cc1O` (stereo partly drawn) [Compound 109, (6S,7aR)-7a-((S)-1-(2-fluoro-5-hydroxy-4-methoxyphenyl)propan-2-yl)-6-(2-hydroxypropyl)-7,7a-dihydrobenzo[d][1,3]dioxol-5(6H)-one], the IC50 amounted to 1500 nM in test [1] (setting [5]) and 650 nM in test [2] (Homo sapiens, Table 7).

Consider `C=CC[C@H]1C[C@]2(C(C)Cc3cc(C(N)=O)c(OC)cc3F)OCOC2=CC1=O` (stereo partly drawn) [Compound 11, 5-(2-((3aR,5S)-5-allyl-6-oxo-3a,4,5,6-tetrahydrobenzo[d][1,3]dioxol-3a-yl)propyl)-4-fluoro-2-methoxybenzamide], for which the IC50 in test [1] (setting [3]) was 330 nM; in test [2] (Homo sapiens, Table 3), 4 nM.

As to `C=CCC1C[C@]2([C@@H](C)Cc3cc(F)c(NC)cc3F)OCOC2=CC1=O` (mixture of isomers) [Compound 45, 6-allyl-7a-(1-(2,5-difluoro-4-(methylamino)phenyl)propan-2-yl)-7,7a-dihydrobenzo[d][1,3]dioxol-5(6H)-one], the IC50 in test [1] (setting [4]) is 340 nM; in test [2] (Homo sapiens, Table 5), 98 nM.

Consider `C=CC[C@H]1C[C@]2([C@@H](C)Cc3ccc(N)c(F)c3)OCOC2=CC1=O` [Compound 42, (6S,7aR)-6-allyl-7a-((S)-1-(4-amino-3-fluorophenyl)propan-2-yl)-7,7a-dihydrobenzo[d][1,3]dioxol-5(6H)-one], for which the IC50 in test [1] (setting [4]) amounted to 2500 nM; in test [2] (Homo sapiens, Table 5), 810 nM.

For `C=C(Cl)C[C@H]1C[C@]2([C@@H](C)Cc3ccc(OC)cc3F)OCOC2=CC1=O` [Compound 79, (6R,7aR)-6-(2-chloroallyl)-7a-((S)-1-(2-fluoro-4-methoxyphenyl)propan-2-yl)-7,7a-dihydrobenzo[d][1,3]dioxol-5(6H)-one], the IC50 in test [1] (setting [5]) amounted to 2500 nM; in test [2] (Homo sapiens, Table 7), 1300 nM.

For `CCC[C@H]1C[C@]2([C@@H](C)Cc3cc(O)c(OC)cc3F)OCOC2=CC1=O` [Compound 59], the IC50 came out at 170 nM in test [1] (setting [5]) and 58 nM in test [2] (Homo sapiens, Table 7).

Regarding `C=CC[C@H]1C[C@]2([C@@H](C)Cc3cccc(OC)c3)OCOC2=CC1=O` [Compound 50, (6S,7aR)-6-allyl-7a-((S)-1-(3-methoxyphenyl)propan-2-yl)-7,7a-dihydrobenzo[d][1,3]dioxol-5(6H)-one], the IC50 in test [1] (Homo sapiens, NCI-H460, Table 6) was 10600 nM; in test [2] (Homo sapiens, Table 6) it was 8800 nM.

`C=CC[C@H]1C[C@]2([C@@H](C)Cc3cc(F)c(OC)cc3F)O[C@H](C)OC2=CC1=O` [Compound 82, (2R,6S,7aR)-6-allyl-7a-((S)-1-(2,5-difluoro-4-methoxyphenyl)propan-2-yl)-2-methyl-7,7a-dihydrobenzo[d][1,3]dioxol-5(6H)-one]: the IC50 is 5200 nM in test [1] (Homo sapiens, NCI-H460, Table 8) and > 20000 nM in test [2] (Homo sapiens, Table 8).

As to `C=CC[C@H]1C[C@]2([C@@H](C)Cc3cc(C(=O)OC)c(OC)cc3F)OCOC2=CC1=O` [Compound 10, methyl 5-((S)-2-((3aR,5S)-5-allyl-6-oxo-3a,4,5,6-tetrahydrobenzo[d][1,3]dioxol-3a-yl)propyl)-4-fluoro-2-methoxybenzoate], the IC50 in test [1] (setting [3]) was 2200 nM; in test [2] (Homo sapiens, Table 3), > 20000 nM.

On to `C=CC[C@H]1C[C@]2(C(C)Cc3ccc(OC)c(OC(C)=O)c3)OCOC2=CC1=O` (stereo partly drawn) [Compound 33, 5-(2-((3aR,5S)-5-allyl-6-oxo-3a,4,5,6-tetrahydrobenzo[d][1,3]dioxol-3a-yl)propyl)-2-methoxyphenyl acetate], for which the IC50 in test [1] (setting [6]) turned out to be 110 nM; in test [2] (Homo sapiens, Table 4), 16 nM.

`C=CC[C@H]1C[C@]2([C@H](C)Cc3cc(C(=O)OC)c(OC)cc3F)OCOC2=CC1=O` [Compound 9, methyl 5-((R)-2-((3aR,5S)-5-allyl-6-oxo-3a,4,5,6-tetrahydrobenzo[d][1,3]dioxol-3a-yl)propyl)-4-fluoro-2-methoxybenzoate]: the IC50 amounted to 260 nM in test [1] (setting [3]) and 210 nM in test [2] (Homo sapiens, Table 3).

Consider `C=CC[C@H]1C[C@]2([C@@H](C)Cc3ccc(OC)c(C)c3)OCOC2=CC1=O` [Compound 27, (6S,7aR)-6-allyl-7a-((S)-1-(4-methoxy-3-methylphenyl)propan-2-yl)-7,7a-dihydrobenzo[d][1,3]dioxol-5(6H)-one], for which the IC50 in test [1] (setting [6]) is 630 nM; in test [2] (Homo sapiens, Table 4) it was 410 nM.

`COc1ccc(C[C@H](C)[C@]23C[C@H](C/C=C/c4ccccc4)C(=O)C=C2OCO3)cc1OC` (relative stereo) [Compound 71, (6S,7aR)-6-cinnamyl-7a-((S)-1-(3,4-dimethoxyphenyl)propan-2-yl)-7,7a-dihydrobenzo[d][1,3]dioxol-5(6H)-one]: the IC50 in test [1] (setting [5]) was found to be 14000 nM; in test [2] (Homo sapiens, Table 7) it was 6400 nM.

For the compound `C=CC[C@H]1C[C@]2([C@@H](C)Cc3cc(C(=O)N(C)C)c(OC)cc3F)OCOC2=CC1=O` [Compound 94, 5-((S)-2-((3aR,5S)-5-allyl-6-oxo-3a,4,5,6-tetrahydrobenzo[d][1,3]dioxol-3a-yl)propyl)-4-fluoro-2-methoxy-N,N-dimethylbenzamide], the IC50 in test [1] (setting [3]) was > 20000 nM; in test [2] (Homo sapiens, Table 3), > 20000 nM.

Turning to `C=CC[C@H]1C[C@]2([C@@H](C)Cc3ccc(OC(F)(F)F)cc3)OCOC2=CC1=O` [Compound 41, (6S,7aR)-6-allyl-7a-((S)-1-(4-(trifluoromethoxy)phenyl)propan-2-yl)-7,7a-dihydrobenzo[d][1,3]dioxol-5(6H)-one], the IC50 in test [1] (setting [4]) was 3800 nM; in test [2] (Homo sapiens, Table 5), > 20000 nM.

Take `C=CC[C@H]1C[C@]2([C@H](C)Cc3c(F)cc(OC)cc3F)OCOC2=CC1=O` [Compound 23, (6S,7aR)-6-allyl-7a-((R)-1-(2,6-difluoro-4-methoxyphenyl)propan-2-yl)-7,7a-dihydrobenzo[d][1,3]dioxol-5(6H)-one]: the IC50 worked out at 720 nM in test [1] (setting [3]) and 270 nM in test [2] (Homo sapiens, Table 3).

For the compound `C=CCOc1cc(C[C@@H](C)[C@]23C[C@H](CC=C)C(=O)C=C2OCO3)c(F)cc1OC` [Compound 16, (6S,7aR)-6-allyl-7a-((R)-1-(5-(allyloxy)-2-fluoro-4-methoxyphenyl)propan-2-yl)-7,7a-dihydrobenzo[d][1,3]dioxol-5(6H)-one], the IC50 was 620 nM in test [1] (setting [3]) and 520 nM in test [2] (Homo sapiens, Table 3).

In the case of `C=CC[C@H]1C[C@]2([C@@H](C)Cc3cc(-c4nnn[nH]4)c(OC)cc3F)OCOC2=CC1=O` [Compound 95, (6S,7aR)-6-allyl-7a-((S)-1-(2-fluoro-4-methoxy-5-(1H-tetrazol-5-yl)phenyl)propan-2-yl)-7,7a-dihydrobenzo[d][1,3]dioxol-5(6H)-one], the IC50 was > 20000 nM in test [1] (setting [3]) and > 20000 nM in test [2] (Homo sapiens, Table 3).

Take `C=CC[C@H]1C[C@]2([C@@H](C)Cc3cc(O)c(OC)cc3F)OCOC2=CC1=O` [Compound 5, (6S,7aR)-6-allyl-7a-((S)-1-(2-fluoro-5-hydroxy-4-methoxyphenyl)propan-2-yl)-7,7a-dihydrobenzo[d][1,3]dioxol-5(6H)-one]: the IC50 in test [1] (setting [3]) was found to be 33 nM; in test [2] (Homo sapiens, Table 3) it was 9 nM.

Regarding `C=CC[C@H]1C[C@]2([C@H](C)Cc3ccc(OC)c(OC)c3F)OCOC2=CC1=O` [Compound 21, (6S,7aR)-6-allyl-7a-((R)-1-(2-fluoro-3,4-dimethoxyphenyl)propan-2-yl)-7,7a-dihydrobenzo[d][1,3]dioxol-5(6H)-one], the IC50 in test [1] (setting [3]) came out at 3000 nM; in test [2] (Homo sapiens, Table 3), 2800 nM.

On to `C=CC[C@H]1C[C@]2([C@H](C)Cc3ccc(OC)c(F)c3F)OCOC2=CC1=O` [Compound 22, (6S,7aR)-6-allyl-7a-((R)-1-(2,3-difluoro-4-methoxyphenyl)propan-2-yl)-7,7a-dihydrobenzo[d][1,3]dioxol-5(6H)-one], for which the IC50 in test [1] (setting [3]) turned out to be 2400 nM; in test [2] (Homo sapiens, Table 3), 900 nM.
